Source: ChEMBL document CHEMBL1150254, “Dihydroxystyrene metabolites from an association of the sponges Poecillastra wondoensis and Jaspis sp” (J Nat Prod, 2008)
Active and inactive are the calls of the source. The calls are words filed in the database; no cut-off is given here.

Columns and labels:
K562 = experiment: Antitumor activity against human K562 cells; assay type: functional, cell-based
A549 = experiment: Antitumor activity against human A549 cells; assay type: functional, cell-based
Isocitrate lyase = Isocitrate lyase (Candida albicans, UniProt Q9P8Q7); experiment: Inhibition of Candida albicans isocitrate lyase
[1] = Inhibition of Staphylococcus aureus sortase A

Chain of Isocitrate lyase (Q9P8Q7 whole entry): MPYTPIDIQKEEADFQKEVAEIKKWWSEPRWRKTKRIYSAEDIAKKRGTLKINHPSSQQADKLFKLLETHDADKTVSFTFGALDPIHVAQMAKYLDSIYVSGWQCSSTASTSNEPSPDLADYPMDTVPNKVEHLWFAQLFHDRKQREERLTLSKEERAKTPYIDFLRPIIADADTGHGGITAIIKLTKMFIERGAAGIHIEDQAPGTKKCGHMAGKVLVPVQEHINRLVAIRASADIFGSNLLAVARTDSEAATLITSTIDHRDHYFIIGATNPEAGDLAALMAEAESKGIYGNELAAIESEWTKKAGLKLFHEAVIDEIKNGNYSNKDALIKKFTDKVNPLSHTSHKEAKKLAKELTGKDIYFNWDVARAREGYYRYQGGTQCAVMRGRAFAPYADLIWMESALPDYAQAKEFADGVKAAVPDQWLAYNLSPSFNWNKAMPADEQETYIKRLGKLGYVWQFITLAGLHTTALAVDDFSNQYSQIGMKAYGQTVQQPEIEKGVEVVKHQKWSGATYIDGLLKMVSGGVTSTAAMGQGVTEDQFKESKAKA

IC50 (Isocitrate lyase) [µM] | IC50 [1] [µg/mL] | Compound | Activity (K562) | Activity (A549)
 |  | O=S(=O)(O)O/C=C/c1ccc(OC2Oc3ccc(/C=C/OS(=O)(=O)O)cc3OC2c2ccc(O)c(O)c2)c(O)c1 (centres undefined) | inactive | inactive
271 | 163.5 | O=S(=O)([O-])O/C=C/c1ccc(OC2Oc3ccc(/C=C/OS(=O)(=O)[O-])cc3OC2c2ccc(O)c(O)c2)c(O)c1.[Na+].[Na+] (centres undefined) |  | 
 |  | O=S(=O)(O)O/C=C/c1ccc2c(c1)OC(C(O)c1ccc(O)c(O)c1)O2 (centres undefined) | inactive | inactive
306 | > 200 | O=S(=O)([O-])O/C=C/c1ccc2c(c1)OC(C(O)c1ccc(O)c(O)c1)O2.[Na+] (centres undefined) |  | 
91.3 | > 200 | CN(C)CCc1cn(C(c2ccc(O)c(O)c2)C2Oc3ccc(/C=C\OS(=O)(=O)[O-])cc3O2)cn1.[Na+] (centres undefined) |  | 
> 381 | > 200 | CN(C)CCc1cn(C(c2ccc(O)c(O)c2)C2Oc3ccc(/C=C/OS(=O)(=O)[O-])cc3O2)cn1.[Na+] (centres undefined) |  | 
164 | 68.3 | CN(C)CCc1cn(C(c2ccc(O)c(O)c2)C2Oc3ccc(/C=C\OS(=O)(=O)[O-])cc3O2)cn1.Cl.[Na+] (centres undefined) |  | 
64.2 | > 200 | O=S(=O)([O-])O/C=C/c1ccc(OC2Oc3cc(/C=C/OS(=O)(=O)[O-])ccc3OC2c2ccc(O)c(O)c2)c(O)c1.[Na+].[Na+] (centres undefined) | inactive | inactive
> 787 | 14.6 | O=S(=O)([O-])O/C=C/c1ccc(O)c(O)c1.[Na+] [JASPISIN] |  | 
> 426 | 82.4 | CN(C)C(=N)N.O=S(=O)(O)O/C=C/c1ccc2c(c1)OC(C(O)c1ccc(O)c(O)c1)O2 (centres undefined) [listing 1 of 2 here] |  | 
 |  | CN(C)C(=N)N.O=S(=O)(O)O/C=C/c1ccc2c(c1)OC(C(O)c1ccc(O)c(O)c1)O2 (centres undefined) [listing 2 of 2 here] | inactive | inactive
 |  | CN(C)C(=N)N.CN(C)C(=N)N.O=S(=O)(O)O/C=C/c1ccc(OC2Oc3ccc(/C=C/OS(=O)(=O)O)cc3OC2c2ccc(O)c(O)c2)c(O)c1 (centres undefined) [listing 1 of 2 here] | inactive | inactive
341 | > 200 | O=S(=O)([O-])O/C=C/c1ccc2c(c1)OC(c1ccc(O)c(O)c1)C(OS(=O)(=O)[O-])O2.[Na+].[Na+] (centres undefined) |  | 
> 259 | > 200 | CN(C)C(=N)N.CN(C)C(=N)N.O=S(=O)(O)O/C=C/c1ccc(OC2Oc3ccc(/C=C/OS(=O)(=O)O)cc3OC2c2ccc(O)c(O)c2)c(O)c1 (centres undefined) [listing 2 of 2 here] |  | 
> 356 | > 200 | CN(C)CCc1cn(C(c2ccc(O)c(O)c2)C2Oc3ccc(/C=C/OS(=O)(=O)[O-])cc3O2)cn1.Cl.[Na+] (mixture of isomers) |  | 
126 | > 200 | COC(OC)C(OC)c1ccc(O)c(O)c1 (centres undefined) |  | 
 |  | CN(C)CCc1cn(C(c2ccc(O)c(O)c2)C2Oc3ccc(/C=C\OS(=O)(=O)O)cc3O2)cn1 (centres undefined) | inactive | inactive
> 787 | 34.2 | O=S(=O)([O-])O/C=C\c1ccc(O)c(O)c1.[Na+] [ISOJASPISIN] |  | 

Compound | IC50 (Isocitrate lyase) [µM] | IC50 [1] [µg/mL] | Activity (K562) | Activity (A549)
C=C(CC(=O)O)C(=O)O [ITACONATE] | 44.6 |  |  | 
